Values of other authors, collected in US20220347117A1 (priority 2021, published 2022).

C=CCN1CC[C@]23c4c5ccc(O)c4O[C@H]2C(=O)CC[C@@]3(O)[C@H]1C5 [naloxone]
pKa: about 7.94
